The results in this text go back to paper PMC10004634 (PLOS ONE, 2023).

Targets include BMPR1B (Homo sapiens, UniProt O00238); CAMK2D (Homo sapiens, UniProt Q13557); CDK7 (Homo sapiens, UniProt P50613); CSNK1G1 (Homo sapiens, UniProt Q9HCP0); EPHB4 (Homo sapiens, UniProt P54760); KIT(A829P) (Homo sapiens, UniProt P10721, A829P); PAK4 (Homo sapiens, UniProt O96013); PIM1 (Homo sapiens, UniProt P11309); PLK4 (Homo sapiens, UniProt O00444); TLK1 (Homo sapiens, UniProt Q9UKI8); TRPM6 (Homo sapiens, UniProt Q9BX84); HCK (Homo sapiens, UniProt P08631); CSNK2A1 (Homo sapiens, UniProt P68400); FYN (Homo sapiens, UniProt P06241).

Holding throughout (assay): biochemical
Set-up in all cases: KINOMEscan scanMAX competition binding, DNA-tagged kinases, qPCR read-out, percent control at 300 nM
On the technique in general: Real-time PCR tracks product formation cycle by cycle.

Experiment [1] concerns the target T1, ABL1(Y253F)-phosphorylated (Homo sapiens, UniProt P00519, Y253F).
T1 construct: phosphorylated

The next experiment deals with T2, ERK4 (Homo sapiens, UniProt P31152).
T2 construct: gene MAPK4

In the next experiment the target is T3, LKB1 (Homo sapiens, UniProt Q15831).
T3 construct: gene STK11

The next experiment addresses T4, LOK (Homo sapiens, UniProt O94804).
T4 construct: gene STK10

The next experiment addresses T5, MLK1 (Homo sapiens, UniProt P80192).
T5 construct: gene MAP3K9

Another experiment has as its target T6, MRCKA (Homo sapiens, UniProt Q5VT25).
T6 construct: gene CDC42BPA

Experiment [2] has as its target T7, RSK3(Kin.Dom.2-C-terminal) (Homo sapiens, UniProt Q15349).
T7 construct: gene RPS6KA2; Kin.Dom.2-C-terminal

A further experiment has as its target T8, YSK1 (Homo sapiens, UniProt O00506).
T8 construct: gene STK25

A further experiment has as its target T9, YSK4 (Homo sapiens, UniProt Q56UN5).
T9 construct: gene MAP3K19

The mark [3] stands for this setting: read-out: Percent control / Zanubrutinib.
Where [4] appears, read: read-out: Percent control / Tirabrutinib.
Where [5] appears, read: read-out: Percent control / Ibrutinib.
The mark [6] stands for this setting: read-out: Percent control / Acalabrutinib.

The structures appear in SMILES notation. Like-named read-outs stand apart in the source and are kept apart here.

Chain of PLK4 (O00444 whole entry): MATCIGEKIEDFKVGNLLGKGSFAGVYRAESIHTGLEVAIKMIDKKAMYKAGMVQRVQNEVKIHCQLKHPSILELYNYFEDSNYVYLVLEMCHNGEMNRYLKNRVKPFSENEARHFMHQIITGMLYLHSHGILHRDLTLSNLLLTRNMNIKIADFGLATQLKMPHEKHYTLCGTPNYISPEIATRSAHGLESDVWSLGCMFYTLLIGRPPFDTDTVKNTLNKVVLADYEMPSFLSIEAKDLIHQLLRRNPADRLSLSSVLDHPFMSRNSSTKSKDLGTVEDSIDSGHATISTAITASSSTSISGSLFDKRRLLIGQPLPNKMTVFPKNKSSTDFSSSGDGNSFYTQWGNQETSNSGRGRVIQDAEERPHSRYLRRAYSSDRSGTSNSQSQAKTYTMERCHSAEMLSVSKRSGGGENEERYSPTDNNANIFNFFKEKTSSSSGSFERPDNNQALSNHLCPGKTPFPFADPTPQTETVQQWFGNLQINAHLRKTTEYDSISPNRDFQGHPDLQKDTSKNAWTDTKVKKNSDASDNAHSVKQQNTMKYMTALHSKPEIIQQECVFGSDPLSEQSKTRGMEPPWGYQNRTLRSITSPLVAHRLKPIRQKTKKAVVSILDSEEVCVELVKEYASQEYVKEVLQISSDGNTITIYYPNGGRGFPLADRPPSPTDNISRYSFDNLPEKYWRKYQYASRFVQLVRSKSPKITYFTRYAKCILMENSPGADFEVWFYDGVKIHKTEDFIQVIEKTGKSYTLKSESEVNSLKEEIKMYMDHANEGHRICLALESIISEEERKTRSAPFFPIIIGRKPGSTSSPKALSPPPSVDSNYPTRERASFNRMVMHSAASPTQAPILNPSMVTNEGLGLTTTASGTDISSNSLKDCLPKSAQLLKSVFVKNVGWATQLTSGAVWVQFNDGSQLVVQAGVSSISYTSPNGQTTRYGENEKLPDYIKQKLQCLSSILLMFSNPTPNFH
Chain of FYN (P06241 whole entry): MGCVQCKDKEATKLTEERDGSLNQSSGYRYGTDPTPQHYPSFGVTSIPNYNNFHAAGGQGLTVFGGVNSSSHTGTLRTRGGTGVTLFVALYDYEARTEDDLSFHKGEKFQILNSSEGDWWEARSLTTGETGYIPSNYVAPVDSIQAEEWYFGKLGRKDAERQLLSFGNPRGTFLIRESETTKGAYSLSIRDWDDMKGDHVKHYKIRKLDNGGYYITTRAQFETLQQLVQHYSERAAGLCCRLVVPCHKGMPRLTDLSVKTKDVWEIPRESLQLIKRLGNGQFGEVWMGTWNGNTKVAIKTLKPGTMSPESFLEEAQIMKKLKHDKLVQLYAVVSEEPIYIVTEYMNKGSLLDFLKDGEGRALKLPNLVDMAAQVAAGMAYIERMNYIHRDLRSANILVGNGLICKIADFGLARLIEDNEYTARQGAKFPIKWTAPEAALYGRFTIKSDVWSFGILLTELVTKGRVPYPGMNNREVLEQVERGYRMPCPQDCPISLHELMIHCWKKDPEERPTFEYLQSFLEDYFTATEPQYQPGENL
Chain of KIT(A829P) (P10721 whole entry A829P): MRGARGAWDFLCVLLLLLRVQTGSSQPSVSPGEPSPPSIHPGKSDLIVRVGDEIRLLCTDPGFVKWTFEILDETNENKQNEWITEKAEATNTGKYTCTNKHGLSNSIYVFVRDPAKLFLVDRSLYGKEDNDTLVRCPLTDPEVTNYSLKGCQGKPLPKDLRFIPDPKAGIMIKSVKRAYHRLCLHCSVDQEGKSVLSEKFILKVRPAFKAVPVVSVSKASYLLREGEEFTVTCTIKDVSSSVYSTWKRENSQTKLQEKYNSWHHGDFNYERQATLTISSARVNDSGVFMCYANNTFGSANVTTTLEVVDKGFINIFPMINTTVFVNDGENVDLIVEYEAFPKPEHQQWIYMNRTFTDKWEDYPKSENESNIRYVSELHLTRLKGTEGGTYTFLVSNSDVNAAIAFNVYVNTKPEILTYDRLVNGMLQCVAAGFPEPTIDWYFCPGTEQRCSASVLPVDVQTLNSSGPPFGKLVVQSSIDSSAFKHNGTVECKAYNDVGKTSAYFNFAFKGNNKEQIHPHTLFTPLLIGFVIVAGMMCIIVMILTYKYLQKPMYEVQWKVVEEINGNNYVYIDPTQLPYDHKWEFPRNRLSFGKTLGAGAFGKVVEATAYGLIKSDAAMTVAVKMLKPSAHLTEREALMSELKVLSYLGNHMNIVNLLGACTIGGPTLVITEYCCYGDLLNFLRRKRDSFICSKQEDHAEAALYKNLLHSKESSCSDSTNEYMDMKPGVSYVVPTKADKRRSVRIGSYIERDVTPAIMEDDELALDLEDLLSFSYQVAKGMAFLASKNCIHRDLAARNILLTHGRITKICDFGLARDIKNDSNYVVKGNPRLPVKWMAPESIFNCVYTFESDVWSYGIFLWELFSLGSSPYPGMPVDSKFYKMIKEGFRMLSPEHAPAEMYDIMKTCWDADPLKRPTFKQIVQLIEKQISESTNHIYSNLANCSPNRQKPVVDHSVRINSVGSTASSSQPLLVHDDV
T7 sequence (Q15349 whole entry): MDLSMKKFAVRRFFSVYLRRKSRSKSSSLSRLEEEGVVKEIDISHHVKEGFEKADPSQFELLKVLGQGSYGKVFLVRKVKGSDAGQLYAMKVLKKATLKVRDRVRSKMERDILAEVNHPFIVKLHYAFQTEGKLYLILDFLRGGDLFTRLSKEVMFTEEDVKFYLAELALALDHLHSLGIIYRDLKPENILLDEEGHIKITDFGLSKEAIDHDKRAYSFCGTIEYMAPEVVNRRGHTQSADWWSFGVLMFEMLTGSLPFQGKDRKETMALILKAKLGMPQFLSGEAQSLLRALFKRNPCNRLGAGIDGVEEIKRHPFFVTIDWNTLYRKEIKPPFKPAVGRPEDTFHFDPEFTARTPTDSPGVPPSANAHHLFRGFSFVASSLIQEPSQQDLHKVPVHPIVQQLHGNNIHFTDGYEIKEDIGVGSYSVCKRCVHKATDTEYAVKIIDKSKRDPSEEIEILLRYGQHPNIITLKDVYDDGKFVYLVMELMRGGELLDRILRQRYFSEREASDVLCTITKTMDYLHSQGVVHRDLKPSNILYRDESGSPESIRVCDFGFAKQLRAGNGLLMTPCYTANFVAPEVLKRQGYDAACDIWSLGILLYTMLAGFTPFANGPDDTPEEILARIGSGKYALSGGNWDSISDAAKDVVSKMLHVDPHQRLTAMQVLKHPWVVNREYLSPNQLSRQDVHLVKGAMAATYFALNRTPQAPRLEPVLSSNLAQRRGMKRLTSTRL
T6 sequence (Q5VT25 whole entry): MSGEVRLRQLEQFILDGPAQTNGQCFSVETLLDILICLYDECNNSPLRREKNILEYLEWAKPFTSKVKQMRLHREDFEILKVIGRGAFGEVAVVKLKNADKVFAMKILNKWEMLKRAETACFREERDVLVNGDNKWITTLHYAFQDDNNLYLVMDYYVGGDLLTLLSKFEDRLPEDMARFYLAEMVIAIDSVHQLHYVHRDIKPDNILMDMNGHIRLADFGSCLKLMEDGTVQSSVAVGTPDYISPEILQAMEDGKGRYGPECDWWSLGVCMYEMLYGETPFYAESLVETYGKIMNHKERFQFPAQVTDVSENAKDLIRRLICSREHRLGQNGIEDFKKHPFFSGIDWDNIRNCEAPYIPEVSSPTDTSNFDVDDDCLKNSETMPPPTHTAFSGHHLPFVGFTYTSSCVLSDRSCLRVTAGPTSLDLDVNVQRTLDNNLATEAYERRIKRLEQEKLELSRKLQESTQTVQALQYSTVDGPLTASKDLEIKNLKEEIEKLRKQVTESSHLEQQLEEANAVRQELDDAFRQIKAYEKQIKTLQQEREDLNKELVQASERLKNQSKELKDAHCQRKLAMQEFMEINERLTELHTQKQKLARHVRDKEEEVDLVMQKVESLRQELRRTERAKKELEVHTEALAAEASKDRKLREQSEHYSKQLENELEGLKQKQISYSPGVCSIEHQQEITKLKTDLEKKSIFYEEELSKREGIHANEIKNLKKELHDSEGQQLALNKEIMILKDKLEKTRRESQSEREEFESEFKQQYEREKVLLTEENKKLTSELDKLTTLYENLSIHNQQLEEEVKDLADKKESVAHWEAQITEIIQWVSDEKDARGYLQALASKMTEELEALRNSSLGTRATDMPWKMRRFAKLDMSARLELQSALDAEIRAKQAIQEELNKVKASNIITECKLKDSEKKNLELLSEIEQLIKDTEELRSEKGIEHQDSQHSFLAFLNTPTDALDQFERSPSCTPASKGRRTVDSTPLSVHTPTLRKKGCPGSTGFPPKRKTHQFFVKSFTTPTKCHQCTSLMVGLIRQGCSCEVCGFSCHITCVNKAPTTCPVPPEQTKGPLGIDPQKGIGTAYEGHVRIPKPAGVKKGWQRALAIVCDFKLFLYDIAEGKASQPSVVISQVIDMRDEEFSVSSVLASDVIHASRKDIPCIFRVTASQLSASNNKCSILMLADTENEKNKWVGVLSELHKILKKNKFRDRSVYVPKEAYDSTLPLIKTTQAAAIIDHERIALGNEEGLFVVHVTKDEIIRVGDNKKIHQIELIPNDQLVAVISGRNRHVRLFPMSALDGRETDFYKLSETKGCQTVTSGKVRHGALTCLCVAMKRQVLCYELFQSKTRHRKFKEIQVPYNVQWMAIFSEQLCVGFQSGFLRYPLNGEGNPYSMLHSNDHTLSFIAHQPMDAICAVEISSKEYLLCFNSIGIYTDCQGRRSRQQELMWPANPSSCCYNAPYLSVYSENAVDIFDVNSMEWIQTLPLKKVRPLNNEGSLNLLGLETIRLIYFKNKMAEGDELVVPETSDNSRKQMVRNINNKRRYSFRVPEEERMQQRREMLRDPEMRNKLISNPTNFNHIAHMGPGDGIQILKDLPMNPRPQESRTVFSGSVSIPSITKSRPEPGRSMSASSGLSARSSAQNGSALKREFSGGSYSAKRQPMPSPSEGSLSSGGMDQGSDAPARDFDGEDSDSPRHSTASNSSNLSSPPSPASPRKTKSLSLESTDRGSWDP

As for `C=CC(=O)N1CCC([C@@H]2CCNc3c(C(N)=O)c(-c4ccc(Oc5ccccc5)cc4)nn32)CC1` [Zanubrutinib], the remaining binding at 0.3 µM came to 85% in [1] (setting [3]); 98% at BMPR1B (setting [3]); 80% on CAMK2D (setting [3]); 100% on CDK7 (setting [3]); 91% on CSNK1G1 (setting [3]); 87% on EPHB4 (setting [3]). Besides, the remaining binding at 0.3 µM on ERK4 (setting [3]) came out at 99%; at KIT(A829P) (setting [3]) it was 97%; at LKB1 (setting [3]), 84%; on LOK (setting [3]), 93%; at MLK1 (setting [3]) it was 84%; on MRCKA (setting [3]) it was 100%. Besides, the remaining binding at 0.3 µM turned out to be 85% on PAK4 (setting [3]); 73% on PIM1 (setting [3]); 84% at PLK4 (setting [3]); 84% in [2] (setting [3]); 92% on TLK1 (setting [3]); 63% on TRPM6 (setting [3]). Also, the figures for the remaining binding at 0.3 µM on YSK1 (setting [3]) and at YSK4 (setting [3]) were 88% and 100%, respectively.
`CC#CC(=O)N1CC[C@@H](n2c(=O)n(-c3ccc(Oc4ccccc4)cc3)c3c(N)ncnc32)C1` [Tirabrutinib]: the remaining binding at 0.3 µM at BMPR1B (setting [4]) is 98%; at HCK (setting [4]) it was 57%.
On to `C=CC(=O)N1CCC[C@@H](n2nc(-c3ccc(Oc4ccccc4)cc3)c3c(N)ncnc32)C1` [Ibrutinib], for which the remaining binding at 0.3 µM at CSNK2A1 (setting [5]) is 90%; at FYN (setting [5]), 19%; on HCK (setting [5]) it was 4.5%; on PLK4 (setting [5]), 86%; in experiment [2] (setting [5]), 90%; at TLK1 (setting [5]), 80%. In addition, the remaining binding at 0.3 µM on YSK1 (setting [5]) was determined as 85%.
On to `CC#CC(=O)N1CCC[C@H]1c1nc(-c2ccc(C(=O)Nc3ccccn3)cc2)c2c(N)nccn12` [Acalabrutinib], for which the remaining binding at 0.3 µM in [1] (setting [6]) was 90%; on CAMK2D (setting [6]), 93%; on CDK7 (setting [6]) it was 68%; on CSNK1G1 (setting [6]), 90%; at CSNK2A1 (setting [6]), 99%; on EPHB4 (setting [6]), 93%. Besides, the remaining binding at 0.3 µM on ERK4 (setting [6]) amounted to 96%; on FYN (setting [6]), 95%; at KIT(A829P) (setting [6]) it was 80%; on LKB1 (setting [6]) it was 94%; on LOK (setting [6]), 99%; at MLK1 (setting [6]) it was 92%. The remaining binding at 0.3 µM at MRCKA (setting [6]) turned out to be 96%; on PAK4 (setting [6]), 93%; on PIM1 (setting [6]) it was 94%; at TRPM6 (setting [6]), 96%; on YSK4 (setting [6]), 74%.
